Experimental findings from patent publication US7842324B2 (Senomyx, Inc., priority 2005, dated 2010) are described below.

Data set [1] deals with T1, hT1R2/hT1R3 sweet receptor expressed in HEK293 cell line (Homo sapiens, UniProt Q7RTX0+Q8TE23).
T1 construct: expressed in transfected cells; host or cells: HEK293 derivative stably expressing Gα15 and hT1R2/hT1R3, clone S-9
T1 sequence (Q8TE23 20-839): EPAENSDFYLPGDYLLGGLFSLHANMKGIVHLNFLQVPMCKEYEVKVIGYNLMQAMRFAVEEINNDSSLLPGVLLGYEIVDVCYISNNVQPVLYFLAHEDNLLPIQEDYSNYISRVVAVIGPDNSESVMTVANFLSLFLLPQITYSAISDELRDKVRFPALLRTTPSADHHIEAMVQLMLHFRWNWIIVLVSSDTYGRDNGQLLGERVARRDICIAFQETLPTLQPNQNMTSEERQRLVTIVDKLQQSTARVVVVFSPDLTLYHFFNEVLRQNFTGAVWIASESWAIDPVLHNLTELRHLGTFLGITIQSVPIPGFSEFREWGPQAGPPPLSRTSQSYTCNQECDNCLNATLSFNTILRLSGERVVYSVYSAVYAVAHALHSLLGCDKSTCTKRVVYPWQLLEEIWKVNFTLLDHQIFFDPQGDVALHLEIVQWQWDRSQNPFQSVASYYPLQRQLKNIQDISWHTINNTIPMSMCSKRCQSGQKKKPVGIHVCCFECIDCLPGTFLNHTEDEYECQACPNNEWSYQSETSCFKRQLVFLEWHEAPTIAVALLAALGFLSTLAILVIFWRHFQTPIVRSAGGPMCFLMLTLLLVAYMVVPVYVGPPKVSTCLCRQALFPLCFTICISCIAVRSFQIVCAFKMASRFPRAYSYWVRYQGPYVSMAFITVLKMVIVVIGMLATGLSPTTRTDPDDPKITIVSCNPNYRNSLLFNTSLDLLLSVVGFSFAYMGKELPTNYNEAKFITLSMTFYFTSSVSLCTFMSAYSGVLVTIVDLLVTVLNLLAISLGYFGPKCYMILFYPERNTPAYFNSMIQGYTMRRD
T1 sequence (Q7RTX0 21-852): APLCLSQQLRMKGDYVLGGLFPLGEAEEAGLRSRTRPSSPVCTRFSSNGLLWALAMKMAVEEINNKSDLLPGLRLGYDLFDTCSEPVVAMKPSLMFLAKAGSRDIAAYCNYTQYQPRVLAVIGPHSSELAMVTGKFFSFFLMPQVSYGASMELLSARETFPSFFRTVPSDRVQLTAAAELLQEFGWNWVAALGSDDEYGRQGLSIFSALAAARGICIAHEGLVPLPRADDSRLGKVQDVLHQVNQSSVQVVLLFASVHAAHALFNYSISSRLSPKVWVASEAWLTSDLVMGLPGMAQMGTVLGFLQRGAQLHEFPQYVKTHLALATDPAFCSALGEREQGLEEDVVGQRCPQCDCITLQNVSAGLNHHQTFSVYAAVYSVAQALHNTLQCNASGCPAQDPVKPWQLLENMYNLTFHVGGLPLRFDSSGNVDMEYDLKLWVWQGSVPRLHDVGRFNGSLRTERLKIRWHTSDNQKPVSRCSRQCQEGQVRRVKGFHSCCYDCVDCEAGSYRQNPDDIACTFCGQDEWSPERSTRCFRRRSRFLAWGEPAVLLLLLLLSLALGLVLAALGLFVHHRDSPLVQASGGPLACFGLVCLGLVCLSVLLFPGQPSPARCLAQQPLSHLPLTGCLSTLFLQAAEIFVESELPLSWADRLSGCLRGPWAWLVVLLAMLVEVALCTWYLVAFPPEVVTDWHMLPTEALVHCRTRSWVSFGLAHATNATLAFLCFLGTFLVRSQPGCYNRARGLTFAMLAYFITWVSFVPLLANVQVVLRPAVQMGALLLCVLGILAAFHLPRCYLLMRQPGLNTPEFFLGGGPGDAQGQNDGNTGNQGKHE
Nature of the data set: In vitro hT1R2/hT1R3-HEK293 taste receptor activation assay (FLIPR). Format: cell-based. Particulars: read-out: EC50 for activation of a hT1R2/hT1R3 sweet receptor expressed in HEK293 cell line. An outline of the steps:
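HEK293 cells stably expressing Gα15 and hT1R2/hT1R3 were loaded with Fluo-3AM (4 μM, 1 h, room temperature), then stimulated at room temperature in D-PBS. Peak fluorescence (ex 480/em 535 nm) was normalized to basal. Dose-responses were run in duplicate over 60 nM–30 μM, normalized to 400 mM D-fructose, and EC50 fitted by free-Hill non-linear regression.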

Data set [2] has as its system Human Panelists. Nature of the data set: Difference from Reference human taste test (Table B). Type of data set: in vivo. The conditions noted are these: 5 μM compound + 6% fructose/glucose, pH 7.1. The source says:
Purpose: To determine how the intensity of a test sample of an experimental compound differs from that of a reference sample in terms of sweetness. This type of study requires a larger number of evaluations in order to obtain statistically significant data, so the test may be repeated with the same or additional panelists.
Subjects rate the difference in intensity of the test sample compared to the reference sample for the key attribute on a scale of −5 (much less sweet than the reference) to +5 (much sweeter than the reference). A score of 0 indicates the test sample is equally as sweet as the reference.
Procedure: Ten or more Subjects are used for the Difference from Reference tests. Subjects have been previously familiarized with the key attribute taste and are trained to use the −5 to +5 scale. Subjects refrain from eating or drinking (except water) for at least 1 hour prior to the test. Subjects eat a cracker and rinse with water four times to clean the mouth. […]
The scores for each test are averaged across Subjects and standard error is calculated. Panel accuracy can be determined using the score from the blind reference test. […]

Data set [3] concerns Human Panelists. Nature of the data set: Line Scale sensory testing human taste test (Table C). Particulars: low sodium buffer pH 7.1. Format: in vivo. The source says:
Purpose: To create a dose-response curve for perceived sweetness intensity of fructose-glucose concentrations. Test samples containing experimental compound are compared to this dose-response curve to determine equivalent sweetness intensity. This type of study requires a number of evaluations in order to obtain statistically significant data, so the test may be repeated with the same or additional panelists.
Overview: A group of eight or more panelists taste solutions including fructose-glucose at various concentrations, as well as the experimental compound, both with and without added fructose-glucose. Panelists rate sweetness intensity of all samples on an unstructured horizontal line scale, anchored from 0 to 10, where 0 equals no sweetness and 10 equals intense sweetness. Scores for sweetness intensity are averaged across panelists. Then using the average scores and/or equation of the line for the fructose-glucose dose-response curve, equivalent sweetness fructose-glucose concentrations are determined for the samples containing experimental compound.
Procedure: Eight or more subjects are used for the Line Scale tests. Subjects have been previously familiarized with the key attribute taste and are trained to use the 0 to 10 unstructured line scale. Subjects refrain from eating or drinking (except water) for at least 1 hour prior to the test. Subjects eat a cracker and rinse with water several times to clean the mouth.
Fructose-glucose solutions are provided at a wide range of concentrations, such as 0%, 2%, 4%, 6%, 8%, and 10% fructose-glucose, in order to create the dose-response curve. Samples containing experimental compound are prepared both alone and in a 6% fructose-glucose solution. All samples are made up in low sodium buffer pH 7.1. In order to aid dispersion, solutions can also be made up in 0.1% ethanol.
The solutions are dispensed in 20 ml volumes into 1 oz. sample cups and served to the subjects at room temperature. All samples are presented in randomized counterbalanced order to reduce response bias. Further, two sessions of testing may be used to check panel precision.
Subjects taste each sample individually and rate sweetness intensity on the line scale prior to tasting the next sample. All samples are expectorated. Subjects may retaste the samples but can only use the volume of sample given. Subjects must rinse with water between samples. Eating an unsalted cracker between sample pairs may be required depending on the samples tasted.
The scores for each sample are averaged across subjects and standard error is calculated. The dose-response curve is plotted graphically, and this may be used to ensure the panel is rating accurately; i.e. increasing the concentration of fructose-glucose should correspond to increased average scores for sweetness. A 2-way ANOVA (factors being samples and panelists) and multiple comparison tests (such as Tukey's Honestly Significant Difference test) can be used to determine differences among samples and/or panelists. A 3-way ANOVA, with sessions as the third factor, can be used to determine if there is any difference in the ratings between sessions.

Setting [4] is: 10 μM compound + 6% fructose/glucose.
[5] abbreviates: 5 μM compound + 6% fructose/glucose.

What is called melting point is the temperature of the solid-liquid transition.

Where only a bound is given, the exact number is not on record here.

On to `Cc1cscc1-c1ccc(C(C)(C)C(=O)NCC(C)C)cc1` [Compound 2, N-Isobutyl-2-methyl-2-(4-(4-methylthiophen-3-yl)phenyl)propanamide], for which, in data set [1], the EC50 stood at 0.85 µM. Further, the “Perceived Equivalent Sweet Solution” value in data set [2] was ≥ 9% fructose/glucose.

In the case of `CC(C)CNC(=O)C(C)(C)c1ccc(-c2cncc(C#N)n2)cc1` [Compound 20, 2-(4-(6-cyanopyrazin-2-yl)phenyl)-N-isobutyl-2-methylpropanamide], the EC50 in data set [1] amounted to 0.02 µM. Also, the figures for the “Perceived Equivalent Sweet Solution” value in data set [3] (setting [4]) and in data set [3] (10 μM compound alone) were “Equal to 10% fructose/ % fructose/glucose” and “Equal to 6% fructose/ % fructose/glucose”, respectively.

Take `CCC(C)CNC(=O)C(C)(C)c1ccc(-c2cncnc2)cc1` (stereo not drawn) [Compound 25, 2-methyl-N-(2-methylbutyl)-2-(4-(pyrimidin-5-yl)phenyl)propanamide]: in data set [1], the EC50 was 0.23 µM. In data set [3] (setting [4]), the “Perceived Equivalent Sweet Solution” value is on record as “Equal to 10% fructose/ % fructose/glucose”.

As for `COCc1cccc(-c2ccc(C(C)(C)C(=O)NCC(C)C)cc2OC)c1` [Compound 27, N-isobutyl-2-(2-methoxy-3′-(methoxymethyl)biphenyl-4-yl)-2-methylpropanamide], the EC50 in data set [1] came to 0.26 µM. Also, the “Perceived Equivalent Sweet Solution” value in data set [3] (setting [5]) is recorded as “Equal to 8% fructose/ % fructose/glucose”.

On to `COCc1cccc(-c2ccc(C(C)(C)C(=O)NCC(C)C)cc2)c1` [Compound 30, N-isobutyl-2-(3′-(methoxymethyl)biphenyl-4-yl)-2-methylpropanamide], for which the EC50 in data set [1] is 0.61 µM. The “Perceived Equivalent Sweet Solution” value in data set [3] (setting [5]) is reported as “Equal to 10% fructose/ % fructose/glucose”.

Turning to `COCc1cncc(-c2ccc(C(C)(C)C(=O)NCC(C)C)cc2)c1` [Compound 32, N-isobutyl-2-(4-(5-(methoxymethyl)pyridin-3-yl)phenyl)-2-methylpropanamide], in data set [1], the EC50 is 0.91 µM. In addition, the “Perceived Equivalent Sweet Solution” value in data set [3] (setting [4]) is recorded as “Equal to 8% fructose/ % fructose/glucose”.

For `CC(C)CNC(=O)C(C)(C)c1ccc(-c2cccn2C)cc1` [Compound 34, N-isobutyl-2-methyl-2-(4-(1-methyl-1H-pyrrol-2-yl)phenyl)propanamide], the melting point lay in the range of 59 to 60 °C. Besides, the EC50 in data set [1] was found to be 0.96 µM. Further, the “Perceived Equivalent Sweet Solution” value in data set [3] (setting [5]) is listed as “Equal to 8% fructose/ % fructose/glucose”.

Molecule `CC[C@@H](CO)NC(=O)C(C)(C)c1ccc(-c2cccc(COC)c2)cc1` [Compound 39, (S)-N-(1-hydroxybutan-2-yl)-2-(3′-(methoxymethyl)biphenyl-4-yl)-2-methylpropanamide] displayed a melting point of 73 to 75 °C. The EC50 in data set [1] was determined as 1.87 µM. Further, in data set [3] (15 μM compound + 6% fructose/glucose), the “Perceived Equivalent Sweet Solution” value is recorded as “Equal to 8% fructose/ % fructose/glucose”.

For `CC(C)CNC(=O)C(C)(C)c1ccc(-c2cncnc2)cc1` [Compound 43, N-isobutyl-2-methyl-2-(4-(pyrimidin-5-yl)phenyl)propanamide], the EC50 in data set [1] amounted to 1.01 µM. Further, the “Perceived Equivalent Sweet Solution” value in data set [3] (setting [4]) is “Equal to 8% fructose/ % fructose/glucose”.
